Tested on: ADP-stimulated platelets
Assay: ADP-stimulated platelet aggregation assay (gel-filtered human platelets)
Assay type: cell-based
Settings: inhibition of ADP-stimulated platelet aggregation by 50% relative to control; gel-filtered human platelets 2×10^8 per ml, fibrinogen 100 ug/ml, Ca^2+ 1 mM, 10 mM ADP, 37° C.
Source text: The activity of these fibrinogen receptor antagonists is illustrated below. One test used to evaluate fibrinogen receptor antagonist activity is based on evaluation of inhibition of ADP-stimulated platelets. Aggregation requires that fibrinogen bind to and occupy the platelet fibrinogen receptor site. Inhibitors of fibrinogen binding inhibit aggregation. In the ADP-stimulated platelet aggregation assay used to determine inhibition associated with these fibrinogen receptor antagonists, human platelets are isolated from fresh blood, collected into acid citrate/dextrose by differential centrifugation followed by gel filtration on Sepharose 2B in divalent ion-free Tyrode's buffer (pH 7.4) containing 2% bovine serum albumin.
Platelet aggregation is measured at 37° C. in a Chronolog aggregometer. The reaction mixture contains gel-filtered human platelets (2×10^8 per ml), fibrinogen (100 micrograms per ml (ug/ml)), Ca^2+ (1 mM), and the fibrinogen receptor antagonists tested. The aggregation is initiated by adding 10 mM ADP 1 minute after the other components are added. The reaction is then allowed to proceed for at least 2 minutes. The extent of inhibition of aggregation is expressed as the percentage of the rate of aggregation observed in the absence of inhibitor. The IC50 is the dose of a particular compound inhibiting aggregation by 50% relative to a control lacking the compound. […]

Compound: C[C@H](CC(=O)O)NC(=O)CN1CCC[C@@H](CCC2CCNCC2)C1=O
- IC50: 100 µM

— patent US5665882A, “Pyridyl ethylation of lactams” (Merck & Co., Inc., priority 1996, dated 1997)
